Experimental data taken from patent US20230265151A1, “GIP/GLP1 CO-AGONIST COMPOUNDS” (priority 2020, published 2023).
Where two headings read alike, the source gives them in different places.

Tests used:
Format in all cases: cell-based
hGLP-1R = hGLP-1R (Homo sapiens, UniProt P43220); test: Functional cAMP formation (HTRF) in HEK-293 clonal cells expressing hGLP-1R, 0.1% bovine casein, without or with 1.0% human serum albumin; design: expressed in transfected cells; details: for EC50: hGLP-1R EC50, nM (SEM, n), geometric mean
Chain of hGLP-1R (P43220 24-463): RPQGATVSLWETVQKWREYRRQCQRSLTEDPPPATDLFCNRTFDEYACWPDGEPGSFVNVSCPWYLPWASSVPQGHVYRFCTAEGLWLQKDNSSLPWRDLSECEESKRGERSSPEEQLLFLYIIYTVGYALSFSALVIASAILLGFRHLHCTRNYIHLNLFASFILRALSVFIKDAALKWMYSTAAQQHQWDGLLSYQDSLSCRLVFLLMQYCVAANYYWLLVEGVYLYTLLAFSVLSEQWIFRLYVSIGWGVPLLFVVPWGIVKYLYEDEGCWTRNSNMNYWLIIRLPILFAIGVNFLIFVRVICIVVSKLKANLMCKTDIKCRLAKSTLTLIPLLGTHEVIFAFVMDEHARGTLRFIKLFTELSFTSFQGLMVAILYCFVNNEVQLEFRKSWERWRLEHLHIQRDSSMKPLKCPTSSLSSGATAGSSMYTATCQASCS
How it was run: (§1)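 Cells were stimulated with peptide for 30 min at 37° C, then intracellular cAMP was measured by competitive HTRF (665/620 nm ratio) and converted to nM using a cAMP standard curve. Relative EC50 and Emax came from four-parameter logistic fits of percent maximal response against peptide concentration.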

hGIPR = molecular target: T1, hGIPR (Homo sapiens, UniProt P48546); test: Functional cAMP formation (HTRF) in HEK-293 clonal cells expressing hGIPR, 0.1% bovine casein, without or with 1.0% human serum albumin; details: for Emax: HEK293, read-out: hGIPR Emax, % ± SEM, 0.1% bovine casein and 1.0% human serum albumin, 37° C., percent of maximal response to GIP(1-42)NH2; for EC50: hGIPR EC50, nM (SEM, n), cAMP, incubated at 37° C., 0.1% bovine casein (no human serum albumin), geometric mean
T1 construct: expressed in transfected cells
T1 sequence (P48546 22-466): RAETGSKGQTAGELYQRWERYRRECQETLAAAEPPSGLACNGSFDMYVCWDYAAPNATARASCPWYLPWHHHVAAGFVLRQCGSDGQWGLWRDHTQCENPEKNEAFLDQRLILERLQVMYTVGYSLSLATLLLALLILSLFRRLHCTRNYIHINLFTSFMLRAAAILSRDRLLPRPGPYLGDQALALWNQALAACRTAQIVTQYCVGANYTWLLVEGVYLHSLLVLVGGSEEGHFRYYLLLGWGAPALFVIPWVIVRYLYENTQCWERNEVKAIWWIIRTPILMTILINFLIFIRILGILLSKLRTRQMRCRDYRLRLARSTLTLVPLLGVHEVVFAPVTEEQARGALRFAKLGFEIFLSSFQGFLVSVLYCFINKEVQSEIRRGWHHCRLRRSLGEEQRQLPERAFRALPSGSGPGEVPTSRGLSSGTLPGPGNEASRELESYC
How it was run: as §1

hGCGR = molecular target: T2, hGCGR (Homo sapiens, UniProt P47871); test: Functional cAMP formation (HTRF) in HEK-293 clonal cells expressing hGCGR, 0.1% bovine casein, without or with 1.0% human serum albumin; details: hGCGR EC50, nM (SEM, n), geometric mean
T2 construct: expressed in transfected cells
T2 sequence (P47871 26-477): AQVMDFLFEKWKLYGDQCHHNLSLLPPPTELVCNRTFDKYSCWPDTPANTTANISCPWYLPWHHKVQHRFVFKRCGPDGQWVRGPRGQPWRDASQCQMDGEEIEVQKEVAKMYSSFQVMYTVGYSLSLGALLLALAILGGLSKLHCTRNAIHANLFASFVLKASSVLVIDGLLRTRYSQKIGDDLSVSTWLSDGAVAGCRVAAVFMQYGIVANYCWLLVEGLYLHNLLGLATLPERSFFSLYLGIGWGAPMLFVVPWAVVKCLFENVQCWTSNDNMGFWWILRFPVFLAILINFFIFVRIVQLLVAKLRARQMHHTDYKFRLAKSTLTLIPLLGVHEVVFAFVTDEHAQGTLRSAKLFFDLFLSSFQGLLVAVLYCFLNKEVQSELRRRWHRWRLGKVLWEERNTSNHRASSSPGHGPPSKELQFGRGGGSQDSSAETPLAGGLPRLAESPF
How it was run: as §1

[1] = HEK293, read-out: hGLP-1R Emax, % ± SEM, 0.1% bovine casein and 1.0% human serum albumin, 37° C., percent of maximal response to GLP-1(7-36)NH2
[2] = 0.1% bovine casein and 1.0% human serum albumin, 37° C.
[3] = cAMP, incubated at 37° C., 0.1% bovine casein (no human serum albumin)

| SMILES | Emax (hGLP-1R; [1]) [%] | Emax (hGLP-1R; HEK293, read-out: hGLP-1R Emax, % ± SEM, percent of maximal response to GLP-1(7-36)NH2, 37° C., 0.1% bovine casein, arithmetic mean) [%] | EC50 (hGLP-1R; [2]) [nM] | EC50 (hGLP-1R; [3]) [nM] | Emax (hGIPR) [%] | EC50 (hGIPR) [nM] | EC50 (hGCGR; [2]) [nM] | EC50 (hGCGR; [3]) [nM] |
| --- | --- | --- | --- | --- | --- | --- | --- | --- |
| CC[C@H](C)[C@H](NC(=O)[C@H](CC(C)C)NC(=O)[C@](C)(Cc1ccc(O)cc1)NC(=O)[C@@H](CCC(=O)O)NC(=O)[C@@H](NC(=O)[C@H](Cc1ccccc1)NC(=O)[C@H](CCCCNC(=O)COCCOCCNC(=O)COCCOCCNC(=O)CC[C@H](NC(=O)CCCCCCCCCOc1ccc(C(=O)O)cc1)C(=O)O)NC(=O)C(C)(C)NC(=O)[C@H](CCC(N)=O)NC(=O)[C@H](C)NC(=O)[C@H](CCCCNC(=O)COCCOCCNC(=O)COCCOCCNC(=O)CC[C@H](NC(=O)CCCCCCCCCOc1ccc(C(=O)O)cc1)C(=O)O)NC(=O)[C@H](CCCN)NC(=O)[C@H](CC(=O)O)NC(=O)[C@H](CC(C)C)NC(=O)[C@](C)(CC(C)C)NC(=O)[C@@H](NC(=O)C(C)(C)NC(=O)[C@H](Cc1ccc(O)cc1)NC(=O)[C@H](CC(=O)O)NC(=O)[C@H](CO)NC(=O)[C@@H](NC(=O)[C@](C)(Cc1ccccc1F)NC(=O)[C@@H](NC(=O)CNC(=O)[C@H](CCC(=O)O)NC(=O)C(C)(C)NC(=O)[C@@H](N)Cc1ccc(O)cc1)[C@@H](C)O)[C@@H](C)O)[C@@H](C)CC)[C@@H](C)CC)C(=O)N[C@@H](CCC(=O)O)C(=O)NCC(=O)NCC(=O)N1CCC[C@H]1C(=O)N[C@@H](CO)C(=O)N[C@@H](CO)C(=O)NCC(=O)N[C@@H](C)C(=O)N1CCC[C@H]1C(=O)N1CCC[C@H]1C(=O)N1CCC[C@H]1C(=O)N[C@@H](CO)C(N)=O [Example 236] | 125 | 96.5 | 32.6 | 0.336 | 80.5 | 0.0154 | > 9950 | > 9950 |
| CC[C@H](C)[C@H](NC(=O)[C@H](CC(C)C)NC(=O)[C@](C)(Cc1ccc(O)cc1)NC(=O)[C@@H](CCC(=O)O)NC(=O)[C@@H](NC(=O)[C@H](Cc1ccccc1)NC(=O)[C@H](CCC(=O)O)NC(=O)C(C)(C)NC(=O)[C@H](CCC(N)=O)NC(=O)[C@H](C)NC(=O)[C@H](CCCCNC(=O)COCCOCCNC(=O)COCCOCCNC(=O)CC[C@H](NC(=O)CCCCCCCCCOc1ccc(C(=O)O)cc1)C(=O)O)NC(=O)[C@H](CCCN)NC(=O)[C@H](CC(=O)O)NC(=O)[C@H](CC(C)C)NC(=O)[C@](C)(CC(C)C)NC(=O)[C@@H](NC(=O)C(C)(C)NC(=O)[C@H](Cc1ccc(O)cc1)NC(=O)[C@H](CC(=O)O)NC(=O)[C@H](CO)NC(=O)[C@@H](NC(=O)[C@](C)(Cc1ccccc1F)NC(=O)[C@@H](NC(=O)CNC(=O)[C@H](CCC(=O)O)NC(=O)C(C)(C)NC(=O)[C@@H](N)Cc1ccc(O)cc1)[C@@H](C)O)[C@@H](C)O)[C@@H](C)CC)[C@@H](C)CC)C(=O)N[C@@H](CCCCNC(=O)COCCOCCNC(=O)COCCOCCNC(=O)CC[C@H](NC(=O)CCCCCCCCCOc1ccc(C(=O)O)cc1)C(=O)O)C(=O)NCC(=O)NCC(=O)N1CCC[C@H]1C(=O)N[C@@H](CO)C(=O)N[C@@H](CO)C(=O)NCC(=O)N[C@@H](C)C(=O)N1CCC[C@H]1C(=O)N1CCC[C@H]1C(=O)N1CCC[C@H]1C(=O)N[C@@H](CO)C(N)=O [Example 237] | 113 | – | – | 0.633 | 93.1 | 0.0186 | > 9950 | > 9950 |
| CC[C@H](C)[C@H](NC(=O)[C@H](CC(C)C)NC(=O)[C@](C)(Cc1ccc(O)cc1)NC(=O)[C@@H](CCC(=O)O)NC(=O)[C@@H](NC(=O)[C@H](Cc1ccccc1)NC(=O)[C@H](CCC(=O)O)NC(=O)C(C)(C)NC(=O)[C@H](CCC(N)=O)NC(=O)[C@H](C)NC(=O)[C@H](CCCCNC(=O)COCCOCCNC(=O)COCCOCCNC(=O)CC[C@H](NC(=O)CCCCCCCCCOc1ccc(C(=O)O)cc1)C(=O)O)NC(=O)[C@H](CCCN)NC(=O)[C@H](CC(=O)O)NC(=O)[C@H](CC(C)C)NC(=O)[C@](C)(CC(C)C)NC(=O)[C@@H](NC(=O)C(C)(C)NC(=O)[C@H](Cc1ccc(O)cc1)NC(=O)[C@H](CC(=O)O)NC(=O)[C@H](CO)NC(=O)[C@@H](NC(=O)[C@](C)(Cc1ccccc1F)NC(=O)[C@@H](NC(=O)CNC(=O)[C@H](CCC(=O)O)NC(=O)C(C)(C)NC(=O)[C@@H](N)Cc1ccc(O)cc1)[C@@H](C)O)[C@@H](C)O)[C@@H](C)CC)[C@@H](C)CC)C(=O)N[C@@H](CCC(=O)O)C(=O)NCC(=O)NCC(=O)N1CCC[C@H]1C(=O)N[C@@H](CO)C(=O)N[C@@H](CO)C(=O)NCC(=O)N[C@@H](C)C(=O)N1CCC[C@H]1C(=O)N1CCC[C@H]1C(=O)N1CCC[C@H]1C(=O)N[C@@H](CO)C(=O)N[C@@H](CCCCNC(=O)COCCOCCNC(=O)COCCOCCNC(=O)CC[C@H](NC(=O)CCCCCCCCCOc1ccc(C(=O)O)cc1)C(=O)O)C(N)=O [Example 238] | – | – | 27.2 | 1.03 | 90.5 | 0.0214 | > 9950 | > 9950 |
| CC[C@H](C)[C@H](NC(=O)[C@H](CCCN)NC(=O)[C@H](CC(=O)O)NC(=O)[C@H](CC(C)C)NC(=O)[C@](C)(CC(C)C)NC(=O)[C@@H](NC(=O)C(C)(C)NC(=O)[C@H](Cc1ccc(O)cc1)NC(=O)[C@H](CC(=O)O)NC(=O)[C@H](CO)NC(=O)[C@@H](NC(=O)[C@](C)(Cc1ccccc1F)NC(=O)[C@@H](NC(=O)CNC(=O)[C@H](CCC(=O)O)NC(=O)C(C)(C)NC(=O)[C@@H](N)Cc1ccc(O)cc1)[C@@H](C)O)[C@@H](C)O)[C@@H](C)CC)C(=O)N[C@@H](C)C(=O)N[C@@H](CCC(N)=O)C(=O)NC(C)(C)C(=O)N[C@@H](CCC(=O)O)C(=O)N[C@@H](Cc1ccccc1)C(=O)N[C@H](C(=O)N[C@@H](CCCCNC(=O)COCCOCCNC(=O)COCCOCCNC(=O)CC[C@H](NC(=O)CCCCCCCCCOc1ccc(C(=O)O)cc1)C(=O)O)C(=O)N[C@@](C)(Cc1ccc(O)cc1)C(=O)N[C@@H](CC(C)C)C(=O)N[C@H](C(=O)N[C@@H](CCCCNC(=O)COCCOCCNC(=O)COCCOCCNC(=O)CC[C@H](NC(=O)CCCCCCCCCOc1ccc(C(=O)O)cc1)C(=O)O)C(=O)NCC(=O)NCC(=O)N1CCC[C@H]1C(=O)N[C@@H](CO)C(=O)N[C@@H](CO)C(=O)NCC(=O)N[C@@H](C)C(=O)N1CCC[C@H]1C(=O)N1CCC[C@H]1C(=O)N1CCC[C@H]1C(=O)N[C@@H](CO)C(N)=O)[C@@H](C)CC)[C@@H](C)CC [Example 239] | 109 | – | – | 0.546 | 89.1 | 0.0328 | > 9950 | > 9950 |
